Source: US7671092B2, “Paclitaxel enhancer compounds” (Synta Pharmaceuticals Corp., priority 2001, dated 2010)
Values joined by “and” are separate entries in the source; they are usually repeats but may differ in a detail not shown here. Identical values can stand only once.

Assays:
[1] = assay type: in vivo; settings: mice treated with Paclitaxel and Compound (1); FIG. 2
Description: The in vivo anti-cancer enhancing effect of novel compounds was assessed in tumor bearing mice using the tumor growth inhibition assay. Tumor cells were implanted by injection of a tumor cell suspension subcutaneously in the flank of a mouse. […] Animal then begun a multiple injection schedule where the compound and Paclitaxel were given by IV route of administration. Tumors were measured two times a week. During the course of this assay, animals were monitored daily for signs of toxicity including body weight loss.

[2] = system: MDA-435 human breast tumor; test: In vivo tumor growth inhibition assay, compound plus Paclitaxel given IV to tumor-bearing mice; design: species or system CD-1 nu/nu mice; settings: for % Tumor Growth: vehicle = 100
Description: A supplemented media was prepared from 50% DMEM/Dulbecco Modified Eagle Medium (High Glucose), 50% RPMI 1640, 10% FBS/Fetal Bovine Serum (Hybridoma Tested; Sterile Filtered), 1% L-Glutamine, 1% Penicillin-Streptomycin, 1% MEM Sodium Pyruvate and 1% MEM Non-Essential Amino Acids. FBS was obtained from Sigma Chemical Co. and other ingredients were obtained from Invitrogen Life Technologies, USA). The supplemental media was warmed to 37° C. and 50 ml of media was added to a 175 cm^2 tissue culture flask.
The cells used in the assay were MDA-435 Human Breast Carcinoma from the American Type Culture Collection. 1 vial of MDA-435 cells from the liquid nitrogen frozen cell stock was removed. The frozen vial of cells was immediately placed into a 37° C. water bath and gently swirled until thawed. The freeze-vial was wiped with 70% ethanol and cells were immediately pipetted into the 175 cm^2 tissue culture flask containing supplemented media. The cells were incubated overnight and the media was removed and replaced with fresh supplemented media the next day. The flask was incubated until flask became about 90% confluent. This took anywhere from 5-7 days.
The flask was washed with 10 ml of sterile room temperature phosphate buffered saline (PBS). The cells were trypsinized by adding 5 ml of warmed Trypsin-EDTA (Invitrogen) to the flask of cells. […] An equal volume of supplemented media (5 ml) was added to the flask. All the cells were collected into 50 ml tube, and centrifuged at 1000 RPM for 5 minutes at 20° C. The supernatant was aspirated and the cell pellet was resuspended in 10 ml of supplemented media and the cells were counted. 1-3 million cells/flask were seeded into 5-7 tissue culture flasks (175 cm^2). Each flask contained 50 ml of supplemented media. The flasks were incubated until about 90% confluent. The passaging of the cells was repeated until enough cells have been grown for tumor implantation.
The above procedure for trypsinizing and centrifuging the cells were followed. The supernatant was aspirated and the cell pellet was resuspended in 10 ml of sterile PBS and the cells were counted. The cells were centrifuged and then resuspended with appropriate volume of sterile PBS for injection of correct number of cells needed for tumor implantation. In the case of MDA-435, 100 million cells were suspended with 2.0 ml of sterile PBS to a final concentration of 50 million cells/ml in order to inject 5 million cells in 0.1 ml/mouse.
Mice (CD-1 nu/nu) were obtained from Charles River Laboratories: nomenclature: Crl:CD-1-nuBR, Age: 6-8 weeks. The mice were allowed to acclimate for 1 week prior to their being used in an experimental procedure.
Implantation of the MDA-435 tumor cell suspension took place into the corpus adiposum of the female CD-1 nu/nu mouse. […] Tumor cells were implanted subcutaneously into the fat body located in the right quadrant of the abdomen at the juncture of the os coxae (pelvic bone) and the os femoris (femur). 5 million MDA-435 cells in 0.1 ml of sterile PBS were injected using 27 G (½ inch) needle. MDA-435 tumors developed 2-3 weeks after implantation.
Compound stock solutions were prepared by dissolving the compound in cell-culture-grade DMSO (dimethyl sulfoxide) at the desired concentration. This stock solution in DMSO was sonicated in an ultrasonic water bath until all the powder dissolved.

CN(NC(=O)CC(=O)NN(C)C(=S)c1ccccc1)C(=S)c1ccccc1 [Compound (1), N-Malonyl-bis[N′-methyl-N′-(thiobenzoyl)hydrazide]]
Weight loss over the treatment period [1]: little if any weight loss
Enhancement of anti-tumor activity of Paclitaxel ([2]; Example 12, FIG. 1: Compound (1) 25 or 50 mg/kg + Paclitaxel 5 mg/kg, IV, 3 times a week for 3 weeks): significantly enhanced anti-tumor activity of Paclitaxel
% Tumor Growth ([2]; Example 13, Day 23, Groups 4-5: compound 80 mg/kg alone, IV, 3 times a week for 3 weeks): 90%
% Tumor Growth ([2]; Example 13, Day 23, Groups 6 and 8: compound 80 mg/kg + Paclitaxel 2 mg/kg, IV, 3 times a week for 3 weeks): 64%
% Tumor Growth ([2]; Example 13, Day 23, Groups 7 and 9: compound 80 mg/kg + Paclitaxel 5 mg/kg, IV, 3 times a week for 3 weeks): 35%
Average Tumor Volume (mm^3) on Day 23 ([2]; Example 13, Groups 4-5: compound 80 mg/kg alone, IV, 3 times a week for 3 weeks): 270.0 mm^3
Average Tumor Volume (mm^3) on Day 23 ([2]; Example 13, Groups 6 and 8: compound 80 mg/kg + Paclitaxel 2 mg/kg, IV, 3 times a week for 3 weeks): 193.3 mm^3
Average Tumor Volume (mm^3) on Day 23 ([2]; Example 13, Groups 7 and 9: compound 80 mg/kg + Paclitaxel 5 mg/kg, IV, 3 times a week for 3 weeks): 106.2 mm^3
Enhancement of anti-tumor activity of Paclitaxel ([2]; Example 13: compound 80 mg/kg + Paclitaxel at both 2 mg/kg and 5 mg/kg, IV, 3 times a week for 3 weeks): significantly enhanced anti-tumor activity of Paclitaxel
Average Tumor Volume [mm^3] ([2]; Example 14, Day 48, Group 3: Compound (1) 50 mg/kg alone, IV, 3 times a week for 3 weeks): 754.9 mm^3
Average Tumor Volume [mm^3] ([2]; Example 14, Day 48, Group 4: Compound (1) 25 mg/kg + Paclitaxel 10 mg/kg, IV, 3 times a week for 3 weeks): 0.59 mm^3
% Tumor Growth Inhibition on Day 48 ([2]; Example 14, Group 3: Compound (1) 50 mg/kg alone, IV, 3 times a week for 3 weeks): 0%
Tumor volume, fold less than with Paclitaxel alone or Compound (1) alone ([2]; after 24 days of treatment, Paclitaxel 5 mg/kg + Compound (1) 25 mg/kg versus Paclitaxel 5 mg/kg only or Compound (1) 50 mg/kg only, FIG. 1): about five

CC(=O)O[C@H]1C(=O)[C@@]2(C)[C@H]([C@H](OC(=O)c3ccccc3)[C@]3(O)C[C@H](OC(=O)[C@H](O)[C@@H](NC(=O)c4ccccc4)c4ccccc4)C(C)=C1C3(C)C)[C@]1(OC(C)=O)CO[C@@H]1C[C@@H]2O [Paclitaxel]
% Tumor Growth ([2]; Example 13, Day 23, Group 2: Paclitaxel 2 mg/kg alone, IV, 3 times a week for 3 weeks): 86%
% Tumor Growth ([2]; Example 13, Day 23, Group 3: Paclitaxel 5 mg/kg alone, IV, 3 times a week for 3 weeks): 55%
Average Tumor Volume (mm^3) on Day 23 ([2]; Example 13, Group 2: Paclitaxel 2 mg/kg alone, IV, 3 times a week for 3 weeks): 259.8 mm^3
Average Tumor Volume (mm^3) on Day 23 ([2]; Example 13, Group 3: Paclitaxel 5 mg/kg alone, IV, 3 times a week for 3 weeks): 164.8 mm^3
Average Tumor Volume [mm^3] ([2]; Example 14, Day 48, Group 2: Paclitaxel 10 mg/kg alone, IV, 3 times a week for 3 weeks): 105 mm^3 and 105.4 mm^3
% Tumor Growth Inhibition on Day 48 ([2]; Example 14, Group 2: Paclitaxel 10 mg/kg alone, IV, 3 times a week for 3 weeks): 86%
Anti-tumor activity ([2]; Example 14: Paclitaxel 10 mg/kg alone, IV, 3 times a week for 3 weeks): significant anti-tumor activity was observed
Average % Tumor Growth Inhibition on Day 27 ([2]; Example 15, Group 2: Paclitaxel 5 mg/kg alone, IV, 3 times a week for 3 weeks): 19%
